{"source": "paper PMC12336439", "about": "(Archiv Der Pharmazie, 2025)", "biological_target": "T1, USP7 (Homo sapiens, UniProt Q93009)", "T1 construct": "USP7 catalytic domain (USP7CD) (208‐560); made in house", "T1 sequence (Q93009 with tags, fused parts or gaps)": "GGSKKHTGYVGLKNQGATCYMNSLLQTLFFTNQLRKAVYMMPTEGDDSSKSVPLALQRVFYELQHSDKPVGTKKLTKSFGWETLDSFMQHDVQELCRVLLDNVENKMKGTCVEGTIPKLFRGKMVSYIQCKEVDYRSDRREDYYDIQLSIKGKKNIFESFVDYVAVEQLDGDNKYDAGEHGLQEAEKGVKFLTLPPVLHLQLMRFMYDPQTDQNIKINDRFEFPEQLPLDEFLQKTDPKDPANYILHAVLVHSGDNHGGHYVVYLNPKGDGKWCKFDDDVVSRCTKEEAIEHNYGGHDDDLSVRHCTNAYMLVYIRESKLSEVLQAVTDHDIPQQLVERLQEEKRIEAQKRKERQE", "experiment": "Differential scanning fluorimetry (DSF), melting temperature shift of USP7", "type": "binding", "conditions": "8 µM protein, 250 µM compound (1:31.25)", "description": "The influence of the synthesized compounds on the melting temperature (T m) of USP7 and its mutant USP7asoc (active site only cysteine) was investigated by DSF. USP7asoc only retains the catalytic Cys223 while all the other six cysteines are mutated to serine. DSF was selected for initial assessment since it is an efficient and rapid primary screening method readily available to our lab.\nAn important consideration when assessing covalent inhibitors is the time dependence of covalent target occupancy and thus potency, which is determined by the reaction kinetics of the covalent binding event. To allow for drawing conclusions on compounds with slower reaction kinetics, incubation times of 30 min, 4 h, and 24 h at 20°C were chosen for the DSF screen with USP7 (Table 1 and Figures 2 and 3). The threshold at which compounds were considered (de‐)stabilizers was defined at 0.5°C. In parallel, the intrinsic reactivity of a set of representative compounds was evaluated in a glutathione reactivity assay. […] Data obtained from the GSH reactivity studies are shown in Supporting Information S2: Table S2.1 and Figures S2.1–2.3.\nThe melting temperatures of USP7 and USP7asoc in the presence or absence of fragments were determined by DSF on a Qiagen Rotor‐Q Model‐5‐Plex HRM real‐time PCR instrument (Qiagen, Hilden, Germany). SYPRO Orange (Life Technologies Corporation, Eugene, OR, USA) was used as a fluorescent dye at a final concentration of 5x. The protein concentration was 8 µM, and the final compound concentration was 250 µM, corresponding to a protein‐to‐compound ratio of 1:31.25. All compounds were dissolved in dimethyl sulfoxide (DMSO) and the proteins in Tris buffer (25 mM Tris pH 8.0, 150 mM NaCl, 5 mM TCEP, 5% (v/v) DMSO). All measurements were performed after 30 min, 4 h, and 24 h of incubation and at least in triplicate. DSF experiments were carried out with a constant heating rate of 270°C/h. The temperature was ramped from 28°C to 60°C–70°C with excitation and emission filters set at 470 nm and 610 nm, respectively. The melting temperatures (T m) of USP7 and USP7asoc were determined from the maxima of the first derivatives of the melting curves in OriginPro2020 (OriginLab, Northampton, MA, USA). The ∆T m was calculated by subtraction of the T m of the protein sample with pure DMSO from the T m of the protein sample mixed with compound. Error propagation was used to average multiple runs for a compound. A compound was considered to be a hit if the shift in the ∆T m was at least 0.50°C [55].", "data": [{"molecule": "Cn1ccc(-c2cccc3cnc(Nc4nc(F)ccc4[N+](=O)[O-])cc23)c1", "note": "[7b, N‐(6‐Fluoro‐3‐nitropyridin‐2‐yl)‐5‐(1‐methyl‐1H‐pyrrol‐3‐yl)isoquinolin‐3‐amine]", "values": [{"measurement": "∆T m ± SD USP7", "setting": "30 min incubation at 20°C", "value": "–0.10 ± 0.09 °C"}, {"measurement": "∆T m ± SD USP7", "setting": "4 h incubation at 20°C", "value": "0.00 ± 0", "unit": "°C"}, {"measurement": "∆T m ± SD USP7", "setting": "24 h incubation at 20°C", "value": "0.00 ± 0", "unit": "°C"}]}, {"molecule": "CCn1cc(-c2cccc3cnc(Nc4nc(F)ccc4[N+](=O)[O-])cc23)cn1", "note": "[7c, 5‐(1‐Ethyl‐1H‐pyrazol‐4‐yl)‐N‐(6‐fluoro‐3‐nitropyridin‐2‐yl)isoquinolin‐3‐amine]", "values": [{"measurement": "∆T m ± SD USP7", "setting": "30 min incubation at 20°C", "value": "–0.45 ± 0.12 °C"}, {"measurement": "∆T m ± SD USP7", "setting": "4 h incubation at 20°C", "value": "–0.45 ± 0 °C"}]}, {"molecule": "CCCn1cc(-c2cccc3cnc(Nc4nc(F)ccc4[N+](=O)[O-])cc23)cn1", "note": "[7d, N‐(6‐Fluoro‐3‐nitropyridin‐2‐yl)‐5‐(1‐propyl‐1H‐pyrazol‐4‐yl)isoquinolin‐3‐amine]", "values": [{"measurement": "∆T m ± SD USP7", "setting": "30 min incubation at 20°C", "value": "–0.30 ± 0.06 °C"}, {"measurement": "∆T m ± SD USP7", "setting": "4 h incubation at 20°C", "value": "–0.18 ± 0.03 °C"}]}, {"molecule": "O=[N+]([O-])c1ccc(F)nc1Nc1cc2c(-c3cnn(C4CC4)c3)cccc2cn1", "note": "[7e, 5‐(1‐Cyclopropyl‐1H‐pyrazol‐4‐yl)‐N‐(6‐fluoro‐3‐nitropyridin‐2‐yl)isoquinolin‐3‐amine]", "values": [{"measurement": "∆T m ± SD USP7", "setting": "30 min incubation at 20°C", "value": "–0.23 ± 0.06 °C"}, {"measurement": "∆T m ± SD USP7", "setting": "4 h incubation at 20°C", "value": "0.02 ± 0.03", "unit": "°C"}]}, {"molecule": "O=[N+]([O-])c1ccc(F)nc1Nc1cc2c(-c3ccc(-c4ccncc4)cc3)cccc2cn1", "note": "[7i, N‐(6‐Fluoro‐3‐nitropyridin‐2‐yl)‐5‐[4‐(pyridin‐4‐yl)phenyl]isoquinolin‐3‐amine]", "values": [{"measurement": "∆T m ± SD USP7", "setting": "30 min incubation at 20°C", "value": "–0.13 ± 0.09 °C"}, {"measurement": "∆T m ± SD USP7", "setting": "4 h incubation at 20°C", "value": "–0.40 ± 0.08 °C"}, {"measurement": "∆T m ± SD USP7", "setting": "24 h incubation at 20°C", "value": "–0.45 ± 0.09 °C"}]}]}
